Results as given in PMC8300687, “A Fine-Tuned Lipophilicity/Hydrophilicity Ratio Governs Antibacterial Potency and Selectivity of Bifurcated Halogen Bond-Forming NBTIs” (Antibiotics, 2021).
In brackets after ≈: the same amount, converted by molar mass. Like-named read-outs stand apart in the source and are kept apart here.

Legend:
[1] = tested on: MRSA; assay: MIC broth microdilution, MRSA; format: cell-based, methicillin-resistant S. aureus; conditions: Staphylococcus aureus, read-out: MIC MRSA
Method: (§1) Antimicrobial testing was carried out by the broth microdilution method in 96-well plate format following the Clinical and Laboratory Standards Institute (CLSI) guidelines and European Committee on Antimicrobial Susceptibility Testing (EUCAST) recommendations. Bacterial suspension of specific bacterial strain equivalent to 0.5 McFarland turbidity standard was diluted with cation-adjusted Mueller Hinton broth with TES (Thermo Fisher Diagnostic, Landsmeer, The Netherlands), to obtain a final inoculum of 10^5 CFU/mL. Compounds dissolved in DMSO and inoculum were mixed together and incubated for 18–20 h at 35 °C. Suspensions of Mycobacterium sp. were prepared into a tube of Middelbrook 7H9 broth supplemented with 5% OADC (Thermo Scientific, Trek Diagnostic Systems, West Sussex, UK) and incubated for at least 10 days. After incubation the minimal inhibitory concentration (MIC) values were determined by visual inspection as the lowest dilution of compounds showing no turbidity. Tetracycline was used as a positive control on every assay plate.

[2] = target: T1, hERG potassium ion channel (Homo sapiens, UniProt Q12809); assay: FP-based hERG binding assay (Invitrogen kit)
T1 construct: purchased Invitrogen (assay run at TCG Lifesciences Pvt. Ltd.)
Method: Cardiovascular safety profile was entirely outsourced. hERG screening was performed at TCG Lifesciences Pvt. Ltd., Kolkata, West Bengal, India with FP-based hERG binding assay (Invitrogen kit).

[3] = tested on: E. coli (ATCC 25922); assay: MIC broth microdilution, E. coli ATCC 25922; format: cell-based
Method: as §1

[4] = tested on: E. coli (QA-11.7); assay: MIC broth microdilution, E. coli QA-11.7; format: cell-based; conditions: Escherichia coli, 20 h, read-out: MIC E. coli (QA-11.7)
Method: as §1

[5] = Equilibrium solubility at pH 6.8; conditions: for solubility thermodynamic at 24 h: phosphate buffered saline, 37 °C, pH 6.8, aqueous buffer, thermodynamic from solid; for solubility at pH 6.8 in words: pH 6.8, single-dose in 500 mL
Method: Prior to the measurements of solubility and permeability isocratic HPLC methods were developed. […] The individual method parameters for each compound are given in the Supplementary Materials Table S1.
The vials were then placed in a homogenizer (Next Advance Bullet Blender, Troy, NY, USA) for 5 min ad speed setting “2” after which they were kept in a thermostated shaker (Tehtnica HeatMix, Domel, Slovenia) at 37 °C and 1200 RPM for 24 h. […] Twenty µL of these solutions were injected for the HPLC analysis by the described methods (Supplementary Materials Table S1). External standards for calibration were made in a mobile phase with 5% acetonitrile in a range of 30–90 mg/L and injected at 20 µL injection volumes.

[6] = tested on: E. faecalis DRK 057 (ATCC 29212); assay: MIC broth microdilution, E. faecalis; format: cell-based
Method: as §1

[7] = tested on: MRSA (QA-11.4); assay: MIC broth microdilution, MRSA QA-11.4; format: cell-based, methicillin-resistant S. aureus; conditions: Staphylococcus aureus, 20 h, read-out: MIC MRSA (QA-11.4)
Method: as §1

[8] = tested on: M. smegmatis; assay: MIC, M. smegmatis; format: cell-based, Mycobacterium smegmatis
Method: as §1

[9] = tested on: HepG2; assay: Metabolic activity assessment (cytotoxicity), HepG2; format: cell-based; conditions: Homo sapiens, HepG2, metabolic activity after 72 h treatment
Method: Cells of the HepG2 line (ATCC® HB-8065™) and HUVEC (ATCC® CRL-1730™) were cultured in Dulbecco’s Modified Eagle Medium (DMEM; Sigma-Aldrich, St. Louis, MO, USA) supplemented with 10% heat-deactivated FBS (Gibco, Grand Island, NE, USA), 2 mM L-glutamine, 100 U/mL penicillin, 100 μg/mL streptomycin (all from Sigma-Aldrich, St. Louis, MO, USA) in a humidified chamber at 37 °C and 5% CO2. The experiments were carried out on passages 7–9 for both cell lines. The tested compounds were dissolved in DMSO and further diluted in culture medium to a desired final concentration. Cells were seeded into 96-well plates at 8 × 10^4 cells/mL (100 μL/well) and incubated for 24 h to attach onto the wells. Cells were treated with 1 μM and 50 μM of each compound of interest or corresponding vehicle as control. […] The metabolic activity was assessed after 72 h treatment using the CellTiter 96 Aqueous One Solution Cell Proliferation Assay (Promega, Madison, WI, USA), in accordance with the manufacturer’s instructions. The absorbance was measured at 492 nm on an automated microplate reader BioTek Synergy HT (BioTek Instruments, Inc., Winooski, VT, USA). Data are presented as the percentage of metabolic activity of control cells stimulated with vehicle or as IC50 value (mean ± SD) from two independent experiments, each conducted in duplicate or triplicate. IC50 values were calculated by a non-linear regression model using Graph Pad Prism 7 software.

[10] = Escherichia coli, ATCC25922, 20 h; E. coli ATCC 25922; read-out: E. coli MIC (converted)
[11] = Escherichia coli, ATCC25922; read-out: MIC E. coli (ATCC 25922)
[12] = multi-resistant isolate (ampicillin, azithromycin, cefotaxime, ertapenem, imipenem and others)
[13] = Enterococcus faecalis, ATCC29212; read-out: MIC E. faecalis DRK 057 (ATCC 29212)
[14] = Mycolicibacterium smegmatis; read-out: MIC M. smegmatis
[15] = Escherichia coli, ATCC25922; E. coli ATCC 25922; read-out: E. coli MIC (converted)
[16] = Escherichia coli, ATCC25922, read-out: MIC E. coli (ATCC 25922)
[17] = Enterococcus faecalis, ATCC29212, read-out: MIC E. faecalis DRK 057 (ATCC 29212)

T1 sequence (Q12809 whole entry): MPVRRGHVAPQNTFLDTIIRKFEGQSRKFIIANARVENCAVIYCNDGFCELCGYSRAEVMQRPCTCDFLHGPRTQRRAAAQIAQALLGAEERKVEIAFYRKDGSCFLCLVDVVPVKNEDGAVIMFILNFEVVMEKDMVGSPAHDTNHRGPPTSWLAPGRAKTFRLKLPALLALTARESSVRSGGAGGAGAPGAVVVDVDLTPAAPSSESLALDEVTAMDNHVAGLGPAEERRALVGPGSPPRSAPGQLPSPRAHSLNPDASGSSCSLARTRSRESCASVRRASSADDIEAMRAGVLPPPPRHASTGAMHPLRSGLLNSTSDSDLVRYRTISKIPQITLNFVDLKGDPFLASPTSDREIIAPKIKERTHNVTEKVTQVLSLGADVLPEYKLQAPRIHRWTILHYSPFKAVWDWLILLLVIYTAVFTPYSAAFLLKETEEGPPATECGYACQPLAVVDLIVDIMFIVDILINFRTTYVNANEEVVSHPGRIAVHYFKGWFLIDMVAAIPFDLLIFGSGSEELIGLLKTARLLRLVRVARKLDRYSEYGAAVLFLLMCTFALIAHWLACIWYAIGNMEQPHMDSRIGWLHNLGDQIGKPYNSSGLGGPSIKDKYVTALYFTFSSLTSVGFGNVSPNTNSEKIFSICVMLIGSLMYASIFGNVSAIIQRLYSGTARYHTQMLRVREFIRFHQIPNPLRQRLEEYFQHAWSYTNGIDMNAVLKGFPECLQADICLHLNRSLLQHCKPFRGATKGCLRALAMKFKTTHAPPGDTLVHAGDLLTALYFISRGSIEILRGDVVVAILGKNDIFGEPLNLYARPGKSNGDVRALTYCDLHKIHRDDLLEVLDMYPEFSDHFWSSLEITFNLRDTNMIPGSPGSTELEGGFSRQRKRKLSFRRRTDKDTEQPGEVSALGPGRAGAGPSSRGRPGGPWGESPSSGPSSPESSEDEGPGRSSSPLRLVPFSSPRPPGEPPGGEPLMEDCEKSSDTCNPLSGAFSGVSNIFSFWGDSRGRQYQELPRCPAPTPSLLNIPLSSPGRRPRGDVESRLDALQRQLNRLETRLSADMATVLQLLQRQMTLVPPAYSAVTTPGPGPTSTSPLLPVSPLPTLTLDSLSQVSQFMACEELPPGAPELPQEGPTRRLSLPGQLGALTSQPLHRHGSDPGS

Structure (SMILES)	MIC [1] [µg/mL]	IC50 [2] [µM]	MIC [3, 10] [µM]	MIC [3, 11] [µg/mL]	MIC [4, 12] [µg/mL]	solubility thermodynamic at 24 h [5] [µg/mL]	MIC [6, 13] [µg/mL]	MIC ([7]; resistant to cefoxitin) [µg/mL]	MIC [8, 14] [µg/mL]	MIC [3, 15] [µM]	IC50 [9] [µM]	MIC ([3]; Escherichia coli, ATCC25922, 20 h, read-out: E. coli MIC in molar) [µM]	MIC [3, 16] [µg/mL]	MIC [4] [µg/mL]	MIC [6, 17] [µg/mL]	MIC [7] [µg/mL]	solubility at pH 6.8 in words [5]	MIC ([8]; Mycolicibacterium smegmatis, read-out: MIC M. smegmatis) [µg/mL]
COc1ccc2nccc(CCN3CCC(NCc4nc5ccccc5n4C)CC3)c2n1 [Compound 3, 1-(2-(6-Methoxy-1,5-naphthyridin-4-yl)ethyl)-N-((1-methyl-1H-benzo[d]imidazol-2-yl)methyl)piperidin-4-amine]	2 (≈ 4.65 µM)	1.04	297	> 128	64 (≈ 149 µM)	349 (≈ 811 µM)	4 (≈ 9.29 µM)	4 (≈ 9.29 µM)	4 (≈ 9.29 µM)	–	–	–	–	–	–	–	–	–
COc1ccc2nccc(CCN3CCC(NCc4cnn(-c5ccc(F)cc5)c4)CC3)c2n1 [Compound 4, N-((1-(4-Fluorophenyl)-1H-pyrazol-4-yl)methyl)-1-(2-(6-methoxy-1,5-naphthyridin-4-yl)ethyl)piperidin-4-amine]	2 (≈ 4.34 µM)	0.33	–	32	16 (≈ 34.7 µM)	585 (≈ 1270 µM)	8 (≈ 17.4 µM)	8 (≈ 17.4 µM)	≤ 1	69.5	4.64 ± 0.1	–	–	–	–	–	–	–
COc1ccc2nccc(CCN3CCC(NCc4cnn(-c5ccccc5)c4)CC3)c2n1 [Compound 5, 1-(2-(6-Methoxy-1,5-naphthyridin-4-yl)ethyl)-N-((1-phenyl-1H-pyrazol-4-yl)methyl)piperidin-4-amine]	0.5 (≈ 1.13 µM)	0.62	–	16	2 (≈ 4.52 µM)	381 (≈ 861 µM)	1 (≈ 2.26 µM)	1 (≈ 2.26 µM)	0.25 (≈ 0.565 µM)	36.1	6.33 ± 0.19	–	–	–	–	–	–	–
COc1ccc2nccc(CCN3CCC(NCc4c(C)nc5c(C)cccn45)CC3)c2n1 [Compound 6, N-((2,8-Dimethylimidazo[1,2-a]pyridin-3-yl)methyl)-1-(2-(6-methoxy-1,5-naphthyridin-4-yl)ethyl)piperidin-4-amine]	> 128	–	–	–	–	797 (≈ 1790 µM)	–	–	64 (≈ 144 µM)	–	–	288	> 128	> 128	> 128	> 128	–	–
COc1ccc2nccc(CCN3CCC(NC(=O)c4cn5cccc(C#N)c5n4)CC3)c2n1 [Compound 7, 8-Cyano-N-(1-(2-(6-methoxy-1,5-naphthyridin-4-yl)ethyl)piperidin-4-yl)imidazo[1,2-a]pyridine-2-carboxamide]	> 128	–	281	–	–	883 (≈ 1940 µM)	–	–	16 (≈ 35.1 µM)	–	–	–	> 128	> 128	> 128	> 128	–	–
COc1ccc2nccc(CCN3CCC(NCc4cnn(-c5ccccc5)n4)CC3)c2n1 [Compound 8, 1-(2-(6-Methoxy-1,5-naphthyridin-4-yl)ethyl)-N-((2-phenyl-2H-1,2,3-triazol-4-yl)methyl)piperidin-4-amine]	0.5 (≈ 1.13 µM)	0.37	–	64	4 (≈ 9.02 µM)	106 (≈ 239 µM)	1 (≈ 2.25 µM)	1 (≈ 2.25 µM)	0.5 (≈ 1.13 µM)	144	17.1 ± 0.98	–	–	–	–	–	–	–
COc1ccc2nccc(CCN3CCC(NCc4cnn(C(C)C)c4)CC3)c2n1 [Compound 9, N-((1-Isopropyl-1H-pyrazol-4-yl)methyl)-1-(2-(6-methoxy-1,5-naphthyridin-4-yl)ethyl)piperidin-4-amine]	0.25 (≈ 0.612 µM)	9.82	–	8	2 (≈ 4.9 µM)	7550 (≈ 18500 µM)	1 (≈ 2.45 µM)	1 (≈ 2.45 µM)	0.25 (≈ 0.612 µM)	19.6	> 50	–	–	–	–	–	soluble at this pH in any conceivable single-dose	–
C=CCn1cc(CNC2CCN(CCc3ccnc4ccc(OC)nc34)CC2)cn1 [Compound 10, N-((1-Allyl-1H-pyrazol-4-yl)methyl)-1-(2-(6-methoxy-1,5-naphthyridin-4-yl)ethyl)piperidin-4-amine]	2 (≈ 4.92 µM)	6.62	–	16	4 (≈ 9.84 µM)	5700 (≈ 14000 µM)	8 (≈ 19.7 µM)	4 (≈ 9.84 µM)	≤ 1	39.4	> 50	–	–	–	–	–	soluble at this pH in any conceivable single-dose	–
COc1ccc2nccc(CCN3CCC(NCc4ccccc4)CC3)c2n1 [Compound 11]	8 (≈ 21.2 µM)	–	–	64	32 (≈ 85 µM)	1370 (≈ 3640 µM)	16 (≈ 42.5 µM)	8 (≈ 21.2 µM)	8 (≈ 21.2 µM)	170	–	–	–	–	–	–	–	–
COc1ccc2nccc(CCN3CCC(NCc4ccc(F)cc4)CC3)c2n1 [Compound 12]	2 (≈ 5.07 µM)	–	–	32	8 (≈ 20.3 µM)	460 (≈ 1170 µM)	8 (≈ 20.3 µM)	4 (≈ 10.1 µM)	2 (≈ 5.07 µM)	81.1	–	–	–	–	–	–	–	–
COc1ccc2nccc(CCN3CCC(NCc4ccc(Cl)cc4)CC3)c2n1 [Compound 13]	0.25 (≈ 0.608 µM)	–	–	4	1 (≈ 2.43 µM)	119 (≈ 290 µM)	1 (≈ 2.43 µM)	0.5 (≈ 1.22 µM)	0.25 (≈ 0.608 µM)	9.73	–	–	–	–	–	–	–	–
COc1ccc2nccc(CCN3CCC(NCc4ccc(Br)cc4)CC3)c2n1 [Compound 14]	0.062 (≈ 0.136 µM)	–	–	2	1 (≈ 2.2 µM)	72 (≈ 158 µM)	1 (≈ 2.2 µM)	–	–	4.39	–	–	–	–	–	0.125 (≈ 0.274 µM)	–	0.125 (≈ 0.274 µM)
COc1ccc2nccc(CCN3CCC(NCc4ccc(CO)cc4)CC3)c2n1 [Compound 16]	4 (≈ 9.84 µM)	3.24	–	128	32 (≈ 78.7 µM)	3390 (≈ 8330 µM)	8 (≈ 19.7 µM)	8 (≈ 19.7 µM)	32 (≈ 78.7 µM)	315	–	–	–	–	–	–	soluble at this pH in any conceivable single-dose	–
COc1ccc2nccc(CCN3CCC(NCc4ccc(C(N)=O)cc4)CC3)c2n1 [Compound 17]	4 (≈ 9.53 µM)	–	305	> 128	128 (≈ 305 µM)	560 (≈ 1330 µM)	128 (≈ 305 µM)	8 (≈ 19.1 µM)	16 (≈ 38.1 µM)	–	–	–	–	–	–	–	–	–
COc1ccc2nccc(CCN3CCC(NCc4ccc(N(C)C)cc4)CC3)c2n1 [Compound 18]	–	–	–	32	4 (≈ 9.53 µM)	537 (≈ 1280 µM)	1 (≈ 2.38 µM)	0.5 (≈ 1.19 µM)	4 (≈ 9.53 µM)	78.5	–	–	–	–	–	–	–	–
